Reference: US8691777B2, “Combination therapy” (Emory University, priority 2011, dated 2014)

Columns and labels:
PDGFR-β = PDGFR-β (Mus musculus, UniProt P05622); assay: Western blot of PDGFR-β and phospho-PDGFR-β in Tsc2ang1 cells; conditions: imatinib 10 μm, rapamycin 10 nM, vs DMSO control
Protocol: The impact of imatinib (10 μm), rapamycin (10 nM), and a combination of rapamycin and imatinib on the phosphorylated PDGFR-β signaling pathway was tested in Tsc2ang1cells.
Lysates of Tsc2ang1 cells treated with vehicle or indicated drugs were prepared in NP-40 lysis buffer (1% NP-40, 150 mmol/L NaCl, 10% glycerol, 20 mmol/L HEPES, 1 mmol/L phenylmethylsulfonyl fluoride, 2.5 mmol/L EDTA, 100 μmol/L Na3VO4, and 1% aprotinin) Protein concentration in cleared lysates was determined using an Eppendorf BioPhotometer. Samples were resolved using SDS-PAGE (National Diagnostics) and transferred to nitrocellulose membranes. The membranes were blocked with 5% nonfat dry milk in 10 mmol/L Tris/0.1% Tween 20/100 mmol/L NaCl and incubated with primary antibodies followed by horseradish peroxidase-conjugated secondary antibody. The immunoreactive bands were visualized by enhanced chemiluminescence (Amersham Biosciences). The antibodies used were: Phospho-PDGFR-β antibody (Tyr 1021) (Cell signaling Laboratories); Phospho-PDGFR-β antibody (Tyr 1009) (Cell Signaling Laboratories); Aurora kinase A antibody (4718) (Cell signaling Laboratories), Aurorakinase B (3094) antibody (Cell signaling Laboratories) monoclonal anti-β-tubulin antibody (Sigma) was used as a loading control.

tsc2ang1 cells = assay: proliferation assay with tsc2ang1 cells (Coulter counter); format: cell-based, murine; conditions: rapamycin 5 nM, imatinib 10 μM, 24 hours, vs DMSO control
Protocol: 10^4 tsc2ang1 cells per well were plated in 24-well dishes in triplicate. The next day, fresh medium containing the compounds or vehicle controls was added. Cells were incubated at 37° C. Tsc2ang1 (ATCC CRL 2620) is a murine cell line derived from a cutaneous sarcoma that arose in the extremity of a mouse heterozygous for tsc2; these mice develop cutaneous sarcomas at a frequency of about 10 to 15%. The cells were cultured in complete DMEM medium supplemented with 10% FBS (Sigma Aldrich, St Louis, Mo.). […] Cells were treated with vehicle control (DMSO), rapamycin (5 nM), imatinib (10 μM) or imatinib (10 μM)+rapamycin (5 nM) (shown along X-axis) for 24 h and counted using a Coulter counter. The Y-axis represents cell number with error bars representing the SEM.

MMP-2 = assay: gelatin zymography of conditioned media of tsc2ang1 cells; format: cell-based, murine; conditions: 24 hours, vs DMSO-treated control
Protocol: The presence and activity of specific MMP species were detected using gelatin zymography. An aliquot of each conditioned media sample was centrifuged at 4,000 rpm for 1-5 min at 4° C. and supernatant was used. A buffer of 4% SDS, 0.15 mol/L Tris (pH 6.8), 20% glycerol and 0.5% (w/v) bromophenol blue was added to the conditioned media sample. […] Gels were then incubated over night at 37° C. in substrate buffer containing 50 mmol/L Tris-HCL (pH 8), 5 mmol/L CaCl2 and 0.02% NaN3. After incubation, gels were stained for 30 min in 0.5% Coomassie Blue R-250 dissolved in acetic acid, isopropyl alcohol and water (1:3:6); destained in acetic acid, ethanol and water (1:3:6). The finalized gel was scored for the presence/absence MMP activity by a blinded evaluator and photographed.

Sequence of PDGFR-β (P05622 32-1098): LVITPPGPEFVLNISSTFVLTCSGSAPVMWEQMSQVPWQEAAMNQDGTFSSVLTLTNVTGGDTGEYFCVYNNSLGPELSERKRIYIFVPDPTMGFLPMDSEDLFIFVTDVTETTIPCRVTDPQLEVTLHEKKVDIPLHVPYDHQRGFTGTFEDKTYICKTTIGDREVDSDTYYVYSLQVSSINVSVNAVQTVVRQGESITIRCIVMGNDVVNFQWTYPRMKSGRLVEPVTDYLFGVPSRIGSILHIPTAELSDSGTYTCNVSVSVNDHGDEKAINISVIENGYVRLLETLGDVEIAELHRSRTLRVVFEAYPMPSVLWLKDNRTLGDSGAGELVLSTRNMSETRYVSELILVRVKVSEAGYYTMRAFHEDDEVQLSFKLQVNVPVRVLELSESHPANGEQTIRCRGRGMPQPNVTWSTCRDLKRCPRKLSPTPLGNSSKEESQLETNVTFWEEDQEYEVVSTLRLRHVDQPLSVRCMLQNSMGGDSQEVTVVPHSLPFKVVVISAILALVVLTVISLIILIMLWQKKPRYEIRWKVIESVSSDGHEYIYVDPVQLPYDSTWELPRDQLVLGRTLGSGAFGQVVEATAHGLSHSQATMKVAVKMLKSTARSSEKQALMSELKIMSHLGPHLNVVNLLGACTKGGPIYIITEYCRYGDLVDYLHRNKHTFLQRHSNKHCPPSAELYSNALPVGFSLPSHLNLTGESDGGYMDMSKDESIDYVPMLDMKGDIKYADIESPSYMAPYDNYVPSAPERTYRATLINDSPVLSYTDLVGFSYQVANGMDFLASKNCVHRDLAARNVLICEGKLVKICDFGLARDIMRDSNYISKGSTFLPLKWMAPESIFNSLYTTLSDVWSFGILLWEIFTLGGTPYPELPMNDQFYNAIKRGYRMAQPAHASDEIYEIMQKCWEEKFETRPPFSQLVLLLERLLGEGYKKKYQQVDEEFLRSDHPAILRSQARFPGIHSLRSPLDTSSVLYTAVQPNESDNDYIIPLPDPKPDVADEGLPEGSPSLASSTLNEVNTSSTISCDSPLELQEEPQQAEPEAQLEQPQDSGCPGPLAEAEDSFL

For `Cc1ccc(NC(=O)c2ccc(CN3CCN(C)CC3)cc2)cc1Nc1nccc(-c2cccnc2)n1` [imatinib], the “PDGFR β phosphorylation” value (PDGFR-β) was “downregulation of PDGFR β phosphorylation”, the viable cell number (tsc2ang1 cells) was “decrease in the viable cell numbers” and the MMP-2 gelatinase activity (MMP-2) was “decrease in the level of MMP-2”.
